Literature values, collected in patent publication US20090105632A1 (priority 2007, published 2009).

Columns and labels:
Parkinson's disease = details: lisuride administration at about 1.1 mg/day
[1] = 10 mM citrate buffer at pH 5
[2] = oral route, metabolized by the liver

Question: Which antiparkinsonian response (Parkinson's disease) does the source give for `CCN(CC)C(=O)N[C@H]1C=C2c3cccc4[nH]cc(c34)C[C@H]2N(C)C1` [lisuride, N′-[(8α)-9,10-didehydro-6-methylergolin-8-yl]-N,N-diethylurea] here?
Answer: Its antiparkinsonian response is “equal to that achieved with doses of levopoda monotherapy of 668 mg/day”.

Question: And the solubility [1]?
Answer: Its solubility is “about 1.8 mg/ml”.

Question: What about the bioavailability [2] of the same compound?
Answer: The bioavailability was “about 25%”.

Question: And the pKa?
Answer: The pKa was “about 8”.
